Patent US20110269231A1, “PROTEOGLYCAN-BINDING PEPTIDES THAT MODULATE STEM CELL BEHAVIOR” (WISCONSIN ALUMNI RESEARCH FOUNDATION, priority 2010, published 2011)
Square brackets hold non-standard residues; d marks the D form. Ends that are not written are not given here. Gla = N[C@@H](CC(C(=O)O)C(=O)O)C(=O)O

Legend:
hMSCs [1] = assay: hMSC proliferation on KRTGQYKL-SAMs in the presence of FBS and PD 173074; format: cell-based, human; settings: 200 nM PD 173074, 10% FBS; FIG. 11
Protocol: Proliferation of hMSCs cultured on KRTGQYKL-SAMs in medium supplemented with FBS and PD 173074 was determined PD 173074 is a soluble inhibitor of FGF-2 and FGF-4 cognate receptors FGF receptor-1 and -3. hMSCs were cultured on SAMs presenting 2% RGDSP (SEQ ID NO: 8) and either 2% KRTGQYL (SEQ ID NO: 1) or TYRKKGLQ (SEQ ID NO: 9) in medium supplemented with 200 nM PD 173074 and 10% FBS.
hMSCs were expanded at low density on tissue culture treated polystyrene plates using the method described previously by Sotiropoulou et al. to maintain […] (Sotiropoulou et al., “Characterization of the optimal culture conditions for clinical scale production of human mesenchymal stem cells,” Stem Cells, 24:462 (2006)). At passage 6, cells were harvested from the plate, suspended in medium supplemented with 10% fetal bovine serum, and counted using a hemacytometer. Cells were collected as a pellet by centrifugation at 1100 rpm for 5 minutes, the media was decanted off of the pellet, and the cells were suspended in αMEM supplemented with 10% FBS at a density of 20,000 cells/250 μL. […] The total number of cells per viewing area was counted manually for 3 samples per condition.

[2] = test system: human umbilical vein endothelial cells (HUVECs); assay: HUVEC proliferation versus KRTGQYKL surface density and FGF-2 concentration; format: cell-based; settings: 2% RGDSP, 10% FBS
Protocol: Human umbilical vein endothelial cells (HUVECs) as a model cell type were used to investigate the correlation between the surface density of bound heparin PGs, the concentration of soluble FGF-2, and the extent of up-regulation of FGF-mediated cell proliferation.
HUVECs were cultured according to the protocol supplied by the manufacturer. Sub-confluent cells were harvested from the plate, suspended in M199 supplemented with 10% FBS, and counted using a hemacytometer. Cells were collected as a pellet by centrifugation at 1100 rpm for 5 minutes, the media was decanted off of the pellet, and the cells were suspended in fresh serum-supplemented M199 at a density of 20,000 cells/250 μL. SAMs presenting 2% RGDSP (SEQ ID NO: 8) and various densities of KRTGQYKL (SEQ ID NO: 1) were prepared by incubating NHS-activated SAMs in 1× PBS solutions containing 125 μM RGDSP (SEQ ID NO: 8), and various molar ratios of KRTGQYKL (SEQ ID NO: 1) and TYRKKGLQ (SEQ ID NO: 9) at a total concentration of 125 μM Immediately after peptide conjugation, HUVECs were seeded on the SAM substrates at a density of 10,000 cells/cm^2 in M199 supplemented with 10% FBS. […] Brightfield photomicrographs (40× mag) of each substrate were collected on an Olympus IX51 inverted epifluorescent microscope at t=0, 24, 48, and 72 hrs, and the total number of cells per viewing area was counted manually.

[3] = Binding of synthetic KRT peptide to hydroxyapatite (micro-BCA depletion); settings: 50 μM peptide, 1 mg hydroxyapatite, 30 minutes at 37° C.
Protocol: A 50 μM peptide solution containing the synthetic KRT peptide, KRTGQYKLGGGAAAA(Gla)PRR(Gla)VA(Gla)L (SEQ ID NO: 12), was incubated with 1 mg of hydroxyapatite particles for 30 minutes at 37° C. After incubation, the concentration of peptide in solution was determined using a micro-BCA assay (Pierce) as a measure of the depletion of the peptide from solution due to hydroxyapatite binding.

hMSCs [4] = assay: hMSC adhesion on RGESP- and RGDSP-presenting SAMs; format: cell-based, human; settings: for hMSC attachment (number per unit area): RGDSP=0.0001, 0.001 or 0.01 vs RGESP alone, 12 hrs attachment
Protocol: (§1) To maintain multipotency, hMSCs were expanded at low density on tissue culture treated polystyrene plates. At passage 6, cells were harvested from the plate, suspended in medium supplemented with 10% fetal bovine serum, and counted using a hemacytometer. Cells were collected as a pellet by centrifugation at 1100 rpm for 5 minutes, the media was decanted off of the pellet, and the cells were suspended in fresh αMEM at a density of 20,000 cells/250 μL. SAM preparation and peptide conjugation were performed using the protocols described above Immediately after peptide conjugation, SAMs were placed into 1 mL of 1× PBS (pH 7.4) in a 12-well tissue culture plate to prevent degradation of the monolayer due to air oxidation. PBS was aspirated from the wells and replaced with 1.25 mL of αMEM, followed by addition of 250 μL of the cell suspension directly over the SAM substrate in each well. Plates were then gently rocked for 10 seconds to evenly distribute cells over the substrate surface. Substrates were then incubated for a specified time frame (12 hrs for RGESP/RGDSP SAMs, 4 hrs for RGDSP/TYRSRKY SAM in a humid environment at 37° C., 5% CO2 to allow hMSC attachment. At the end of the attachment period, the hMSC growth media was aspirated from the well and the substrates were gently washed with sterile 1× PBS to remove any loosely bound cells. The 1× PBS solution was then replaced with fresh medium. Brightfield photomicrographs of cells were then collected using an Olympus IX51 inverted microscope.
(§2) hMSCs were seeded on the SAMs as described previously. After washing away loosely bound cells using 1× PBS, cytoskeletal immunostaining of hMSCs was performed by following the protocol supplied by the manufacturer. Briefly, a 4% paraformaldehyde solution in 1× PBS was added to the wells for 15 minutes to fix the cells, followed by a 5 minute incubation in a 1× PBS solution containing 0.05% Tween-20 to permeabilize the cells. […] After blocking, a 1× PBS solution containing an anti-Vinculin primary antibody was added to each well and allowed to incubate at room temperature for 60 minutes. The wells were then washed gently three times using a 1× PBS solution containing 0.1 wt % bovine serum albumin. Immediately after washing, a 1× PBS solution containing a fluorescein-tagged […] secondary antibody and a TRITC-tagged anti-Phalloidin antibody was added to each well and allowed to incubate at room temperature for 45 minutes. Substrates were then washed using the method described previously. Cytoskeletal staining was analyzed using an Olympus IX51 inverted epifluorescent microscope equipped with FITC and TRITC filter cube sets.

hMSCs [5] = assay: hMSC projected cell area on SAMs presenting RGDSP and TYRSRKY; format: cell-based, human
Protocol: as §1, §2

recombinant human FGF-2 = target: T1, recombinant human FGF-2 (human, UniProt P09038 135-288, limits assumed); assay: PM-IRRAS of 1% KRTGQYKL-SAMs after 20 min in 1x PBS with FGF-2
T1 construct: also called rhFGF-2; fibroblast growth factor-2
T1 sequence (P09038 135-288 limits assumed): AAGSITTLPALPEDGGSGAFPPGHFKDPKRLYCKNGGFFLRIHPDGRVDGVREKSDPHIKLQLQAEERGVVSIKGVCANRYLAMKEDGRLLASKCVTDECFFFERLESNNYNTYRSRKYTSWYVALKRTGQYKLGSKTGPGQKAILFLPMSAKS
Protocol: PM-IRRAS was used to characterize FGF-2 binding onto […]-SAMs. 1% […] SAMs were incubated in a lx PBS solution (pH 7.4) containing 10 μg/mL recombinant human FGF-2 for 20 minutes and analyzed using PM-IRRAS.

[6] = target: T2, alpha-5 beta-1 integrins (on human mesenchymal stem cells) (human, UniProt P08648 42-1049; P05556 21-798); assay: hMSCs cultured on RGDSP-presenting SAMs in osteogenic induction medium (cell area, cell number, alkaline phosphatase)
T2 construct: whole, on cells; Endogenous integrin on hMSCs; also called hMSC integrin receptors
T2 sequence (P08648 42-1049, chain 1 of 2): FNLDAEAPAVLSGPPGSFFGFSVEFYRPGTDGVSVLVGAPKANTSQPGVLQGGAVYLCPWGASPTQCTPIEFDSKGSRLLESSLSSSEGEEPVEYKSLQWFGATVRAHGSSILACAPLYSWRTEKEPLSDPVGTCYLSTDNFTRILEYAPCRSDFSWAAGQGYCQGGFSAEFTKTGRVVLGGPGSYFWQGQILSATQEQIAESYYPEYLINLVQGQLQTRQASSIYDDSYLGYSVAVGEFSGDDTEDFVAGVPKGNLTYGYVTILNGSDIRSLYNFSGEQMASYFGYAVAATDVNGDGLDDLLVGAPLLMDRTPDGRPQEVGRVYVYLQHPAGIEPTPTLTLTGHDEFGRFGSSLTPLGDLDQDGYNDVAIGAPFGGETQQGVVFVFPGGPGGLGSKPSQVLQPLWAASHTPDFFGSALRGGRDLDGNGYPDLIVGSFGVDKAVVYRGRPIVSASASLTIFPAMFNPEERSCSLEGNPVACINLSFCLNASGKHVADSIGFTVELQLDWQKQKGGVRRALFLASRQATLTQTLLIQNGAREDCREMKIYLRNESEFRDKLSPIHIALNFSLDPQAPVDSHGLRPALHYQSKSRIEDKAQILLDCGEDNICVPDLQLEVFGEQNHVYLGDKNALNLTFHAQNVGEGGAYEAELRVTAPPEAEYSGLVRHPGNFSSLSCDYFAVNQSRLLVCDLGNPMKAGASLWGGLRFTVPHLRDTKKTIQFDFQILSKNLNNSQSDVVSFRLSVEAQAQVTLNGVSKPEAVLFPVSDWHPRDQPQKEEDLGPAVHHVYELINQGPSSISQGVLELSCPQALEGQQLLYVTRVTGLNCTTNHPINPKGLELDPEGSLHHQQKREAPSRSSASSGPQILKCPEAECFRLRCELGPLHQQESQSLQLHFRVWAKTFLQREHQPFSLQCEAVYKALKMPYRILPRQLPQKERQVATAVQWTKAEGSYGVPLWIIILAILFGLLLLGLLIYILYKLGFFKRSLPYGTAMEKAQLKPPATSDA
T2 sequence (P05556 21-798, chain 2 of 2): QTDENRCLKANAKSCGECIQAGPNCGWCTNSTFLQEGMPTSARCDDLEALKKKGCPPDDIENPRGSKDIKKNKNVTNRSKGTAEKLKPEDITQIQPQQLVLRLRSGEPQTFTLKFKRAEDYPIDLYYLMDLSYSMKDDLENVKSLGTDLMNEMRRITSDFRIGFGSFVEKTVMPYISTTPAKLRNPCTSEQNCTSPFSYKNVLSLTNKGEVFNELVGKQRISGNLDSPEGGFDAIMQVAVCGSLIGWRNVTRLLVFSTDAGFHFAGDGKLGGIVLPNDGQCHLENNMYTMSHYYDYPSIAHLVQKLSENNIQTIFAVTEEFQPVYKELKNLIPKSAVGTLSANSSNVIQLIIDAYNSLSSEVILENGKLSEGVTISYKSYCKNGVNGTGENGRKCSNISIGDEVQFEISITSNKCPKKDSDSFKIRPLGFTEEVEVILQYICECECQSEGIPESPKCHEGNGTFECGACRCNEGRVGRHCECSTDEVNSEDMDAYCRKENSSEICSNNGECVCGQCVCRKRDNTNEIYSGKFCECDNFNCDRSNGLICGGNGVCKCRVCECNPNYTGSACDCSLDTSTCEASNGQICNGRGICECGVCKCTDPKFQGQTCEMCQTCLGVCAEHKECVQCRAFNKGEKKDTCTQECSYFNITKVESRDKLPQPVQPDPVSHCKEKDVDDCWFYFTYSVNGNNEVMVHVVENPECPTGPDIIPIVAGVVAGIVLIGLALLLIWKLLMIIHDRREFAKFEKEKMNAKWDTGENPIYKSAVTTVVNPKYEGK
Protocol: SAMs were prepared as previously described. Low passage number hMSCs were harvested from polystyrene plates and seeded on SAMs presenting RGDSP (SEQ ID NO: 8), RGDSP(SEQ ID NO: 8)/[…](SEQ ID NO: 1), or RGDSP(SEQ ID NO: 8)/TYRSRKY(SEQ ID NO: 2), at specified surface densities at a cell density of 2500 cells/cm². Cells were cultured in αMEM basal medium supplemented with 10% FBS, 50 μg/mL 2-phosphate ascorbic acid, 10 mM β-glycerophosphate, and 100 nM dexamethasone for 7 days. Brightfield images of cells were collected to measure cell projected area and quantification of cell number as a function of time. At the end of the 7-day culture period, alkaline phosphatase activity was analyzed using the SensoLyte FDP alkaline phosphatase assay kid (Anaspec, Fremont, Calif.).

## CCN(CC)CCCCNc1ncc2cc(-c3cc(OC)cc(OC)c3)c(NC(=O)NC(C)(C)C)nc2n1 [PD 173074]
hMSCs [1]
  increased proliferation of hMSCs on KRTGQYKL SAMs: completely abolished

## KRTGQYKL
[2]; surface density of 2% KRTGQYKL, 1 ng/mL FGF-2
  HUVEC number: significant increase
[2]; surface density of KRTGQYKL>0.1%, 5 ng/mL FGF-2, by 72 hours
  HUVEC number: significant increase

## KRTGQYKLGGGAAAA(Gla)PRR(Gla)VA(Gla)L (KRTGQYKLGGGAAAA[Gla]PRR[Gla]VA[Gla]L; not fully specified (C-terminus); printed as KRTGQYKLGGGAAAA(Gla)PRR(Gla)VA(Gla)L) [KRT peptide]
[3]
  peptide bound by hydroxyapatite particles: 66.08 nmol/m^2

## RGDSP
hMSCs [4]; FIGS. 36 and 38
  number of focal adhesion complexes versus RGDSP surface density: direct correlation
hMSCs [4]
  hMSC attachment (number per unit area): significant number of hMSCs were present
hMSCs [4]; higher RGDSP densities (RGDSP=0.001 or 0.01)
  hMSC morphology: more well-spread morphology
hMSCs [4]; low density of RGDSP (RGDSP=0.0001)
  hMSC morphology: polarized, spindle-shaped morphology

## RGESP (not fully specified (C-terminus)) [amine-terminated peptide co-immobilized with RGDSP on SAMs, reference compound]
hMSCs [4]
  influence of co-immobilized peptide on RGDSP-dependent hMSC adhesion: did not influence RGDSP-dependent hMSC adhesion
  hMSC attachment (number per unit area): absent

## TYRSRKY
hMSCs [5]; 0.1% RGDSP, 0.1-1% TYRSRKY, 10% FBS
  hMSC morphology (projected cell area): rounded morphology
hMSCs [5]; 0.1% RGDSP, high TYRSRKY density, absence of serum
  hMSC morphology (projected cell area): well-spread morphology
hMSCs [5]; 0.1% RGDSP, low TYRSRKY surface density, absence of serum
  hMSC morphology (projected cell area): rounded hMSCs morphology
hMSCs [5]; 1.0% RGDSP, 0.1-1.0% TYRSRKY, absence of serum
  hMSC morphology (projected cell area): well-spread hMSC morphology
hMSCs [5]; 1.0% RGDSP, TYRSRKY>0.5%, 10% FBS
  hMSC spreading: decrease in hMSC spreading
hMSCs [5]; SAMs presenting 0.1-1.0% TYRSRKY, no RGDSP, presence or absence of serum
  hMSC morphology (projected cell area): rounded morphology

B1: KRTGQYKL synthetic heparin-binding peptide (SEQ ID NO: 1), immobilized on a self-assembled monolayer (peptide)
peptide: KRTGQYKL-NH2
modifications: also: immobilized on oligo(ethylene glycol) alkanethiolate SAM on gold
notes: Made by Fmoc solid phase synthesis on Rink amide MBHA resin
Recombinant human FGF-2
  binding result: no binding (tested: 10 µg/mL recombinant human FGF-2)

B2: RGDSP cell adhesion (integrin-binding) peptide (SEQ ID NO: 8), immobilized on a self-assembled monolayer (peptide)
peptide: RGDSP-NH2
modifications: also: immobilized on SAM on gold
notes: Made by Fmoc solid phase synthesis on Rink amide MBHA resin and conjugated to a SAM on gold; also called RGDSP SAMs; cell-adhesion peptide
[6]
  binding result: binds
